Values of other authors, collected in US20120034276A1, “SOLID PREPARATION” (ASKA Pharmaceutical Co., Ltd., priority 2009, published 2012).
Residues, ends and D or L forms follow the SMILES beside them.

Conditions: numeral in parenthesis, for reference; first or second dissociation step

SMILES	acid dissociation constant pKa
N[C@@H](Cc1ccccc1)C(=O)O [phenylalanine]	2.26
N[C@@H](Cc1c[nH]cn1)C(=O)NCC(=O)O [L-histidylglycine] (H-His-Gly-OH)	2.84
Nc1ccc(C(=O)O)cc1 [aminobenzoic acid]	2.02-3.12
C[C@H](NC(=O)CN)C(=O)O [glycyl-L-alanine] (H-Gly-Ala-OH)	3.07
NCC(=O)NC(Cc1c[nH]cn1)C(=O)NCC(=O)O (racemic) [glycyl-DL-histidylglycine]	3.26
CSCC[C@H](N)C(=O)O [methionine]	2.15
N[C@@H](Cc1c[nH]c2ccccc12)C(=O)O [tryptophan]	2.35
CC(C)[C@H](N)C(=O)O [valine]	2.26
O=C(O)C(O)C(O)C(=O)O (centres unmarked) [tartaric acid]	2.82-2.99
N[C@@H](CO)C(=O)O [serine]	2.13
N[C@@H](CC(=O)O)C(=O)O [aspartic acid]	1.93
NCCCC[C@H](N)C(=O)O [lysine]	2.04
CCCC[C@H](N)C(=O)O [norleucine]	2.30
CC(O)C(=O)O (centres unmarked) [lactic acid]	3.66
NCC(=O)NCC(=O)N[C@@H](Cc1c[nH]cn1)C(=O)O [glycylglycyl-L-histidine] (H-Gly-Gly-His-OH)	2.72
C[C@@H](O)[C@H](N)C(=O)O [threonine]	2.21
O=CC(=O)O [glyoxylic acid]	3.18
C[C@H](NC(=O)CNC(=O)CN)C(=O)O [glycylglycyl-L-alanine]	3.18
O=C(O)CO [glycolic acid]	3.63

SMILES	acid dissociation constant pKa
C[C@H](N)C(=O)O [alanine]	2.30
CN(C)CC(=O)O [N,N-dimethylglycine]	2.08
NC(=O)NCCC[C@H](N)C(=O)O [citrulline]	2.43
O=C(O)[C@H](O)[C@@H](O)[C@H](O)[C@H](O)CO [gluconic acid]	3.86
O=[PH](O)O [phosphonic acid]	1.5
O=C(O)c1cccc(C(=O)O)n1 [2,6-pyridinedicarboxylic acid]	2.09
O=C(O)CCC(=O)O [succinic acid]	4.00
NCC(=O)NCC(=O)NCC(=O)N[C@@H](Cc1c[nH]cn1)C(=O)O [glycylglycylglycyl-L-histidine] (H-GGGH-OH)	2.90
C[C@H](N)C(=O)NCC(=O)O [L-alanylglycine] (H-Ala-Gly-OH)	3.10
CNCC(=O)O [N-methylglycine]	2.20
N=C(N)NCCC[C@H](N)C(=O)O [arginine]	2.05
C[C@H](N)C(=O)NCC(=O)NCC(=O)NCC(=O)O [L-alanylglycylglycylglycine] (H-AGGG-OH)	3.18
C[C@H](N)C(=O)N[C@@H](C)C(=O)O [L-alanyl-L-alanine] (H-Ala-Ala-OH)	3.20
O=C(O)CC(O)C(=O)O (centres unmarked) [malic acid]	3.24
NCC(=O)N[C@@H](Cc1c[nH]cn1)C(=O)O [glycyl-L-histidine] (H-Gly-His-OH)	2.54
CC(=O)C(=O)O [pyruvic acid]	2.26
O=C(O)CC(O)(CC(=O)O)C(=O)O [citric acid]	2.87
N[C@@H](CCC(=O)O)C(=O)O [glutamic acid]	2.18
